# Source: US12064425B2, “Compositions and methods for targeting a viral infection” (priority 2018, dated 2024)
# “Also recorded” adds a separate entry of the source. Read-outs that look alike come from different tables or passages of the source.
# Experiments:
# HIV-1 Env pseudoviruses = type: cell-based
# [1] = system: Env-expressing cells, CD4- and CCR5-expressing cells
# HIV-1 Env = HIV-1 Env (Human immunodeficiency virus type 1, UniProt Q71014)
# [2] = biological target: 92UG037.8 HIV-1 Env W666A (Human immunodeficiency virus type 1, UniProt Q71014, W659A); type: cell-based
# 2F5 Fab = assay: SPR analysis of compound binding to 2F5 Fab
# [3] = system: gp41-inter binding to 240D Fab; set-up: species or system HIV-1
# [4] = system: gp41-inter binding to 2F5 Fab; set-up: species or system HIV-1
# gp41-inter = gp41-inter (Human immunodeficiency virus type 1, UniProt Q71014); type: binding, HIV-1
compound,measurement,setting,value
"Cc1cc(N)c2ccccc2[n+]1CCCCCCCCCC[n+]1c(C)cc(N)c2ccccc21 [dequalinium, quinolinium,1,1′-(1,10-decanediyl)-bis(4-amino-2-methyldiiodide)]",inhibition of HIV-1 infectivity versus MuLV control,HIV-1 Env pseudoviruses,greater inhibition to several HIV-1 isolates
same,cytotoxicity by an assay measuring ATP concentration,[1],minimal level of cytotoxicity
same,inhibition of cell-cell fusion mediated by Envs of primary HIV-1 isolates of different clades,HIV-1 Env,can also target Envs from multiple primary HIV-1 isolates of different clades; also recorded: specifically inhibited cell-cell fusion
same,resistance of mutant Env to inhibition of cell-cell fusion versus wildtype Env,[2],significantly more resistant
same,binding to 2F5,2F5 Fab; SPR,no binding
same,cytotoxicity in the viral infectivity assay,TZM.bl cells,more cytotoxicity than in the cell-cell fusion assay
Nc1cc[n+](CCCCCCCCCC[n+]2ccc(N)c3ccccc32)c2ccccc12 [Compound S2C1],inhibition potency in the cell-cell fusion assay compared to dequalinium,HIV-1 Env,significant decreases in potency
Nc1c2c([n+](CCCCCCCCCC[n+]3c4c(c(N)c5ccccc53)CCC4)c3ccccc13)CCC2 [Compound S2C3],potency of inhibition of viral infectivity compared to dequalinium,HIV-1 Env pseudoviruses,improvement in potency
same,competition with 240D Fab for binding to gp41-inter,[3],"not with a cluster I antibody, 240D Fab"
same,inhibition potency in the cell-cell fusion assay compared to dequalinium,HIV-1 Env,significant improvement
same,binding to 2F5,2F5 Fab,no binding
same,competition with 2F5 for binding to gp41-inter,[4],competed with 2F5 for binding to gp41-inter
Nc1cc[n+](CCCCCCCCCC[n+]2ccc(N)c3cc(Br)ccc32)c2ccc(Br)cc12 [Compound S2C7],inhibition potency in the cell-cell fusion assay compared to dequalinium,HIV-1 Env,modestly improved potency
Cc1cc(N)c2ccccc2n1 [4-aminoquinaldine],activity in blocking HIV-1 Env mediated cell-cell fusion (in words),HIV-1 Env,no activity
c1ccc2c(c1)ccc[n+]2CCCCCCCCCC[n+]1cccc2ccccc21 [Compound S2C10],inhibition potency in the cell-cell fusion assay compared to dequalinium,HIV-1 Env,significant decreases in potency
same,binding to gp41-inter (in words),gp41-inter,no binding
Cc1cc(N)cc[n+]1CCCCCCCCCC[n+]1ccc(N)cc1C [Compound S2C9],inhibition potency in the cell-cell fusion assay compared to dequalinium,HIV-1 Env,significant decreases in potency
